These results are taken from patent publication US20240132431A1, “METHOD FOR ALKYLATING ACIDIC FUNCTIONAL GROUP” (Chugai Seiyaku Kabushiki Kaisha, priority 2021, published 2024).

The structures appear in SMILES notation.

In this test the target is T1, Bcl-2 protein (Recombinant Human Bcl-2 Protein) (Homo sapiens, UniProt P10415).
T1 construct: purchased Novus NBP2-34889
In words: Binding evaluation of mixture library compounds to Bcl-2 using AS-MS (affinity selection mass spectrometry). The settings on record: AS-MS on the mixture of 1200 library compounds, ASMS Ratio(%)=(A−C)/B×100; for ASMS ratio (%) n = 1: replicate n = 1; for ASMS ratio (%) n = 2: replicate n = 2. The method, boiled down: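 Pooled library of ~1200 compounds ([…] each, final) incubated with recombinant human Bcl-2 (20 μM final) in Tris-HCl pH 7.4, NaCl, Tween-20, DTT buffer, dark, 23° C., 1 h. Bound fraction recovered by SEC spin column, organic extraction, reversed-phase LC/MS. ASMS Ratio (%) = (A−C)/B×100 versus protein-free standard and SEC blank.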

T1 sequence (P10415 whole entry): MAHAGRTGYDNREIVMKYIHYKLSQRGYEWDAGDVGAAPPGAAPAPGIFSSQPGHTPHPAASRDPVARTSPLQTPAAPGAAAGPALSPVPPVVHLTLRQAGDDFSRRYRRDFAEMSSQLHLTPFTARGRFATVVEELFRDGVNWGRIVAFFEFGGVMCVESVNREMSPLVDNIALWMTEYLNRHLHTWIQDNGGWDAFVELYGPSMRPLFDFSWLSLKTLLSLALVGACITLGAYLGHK

Turning to `CCOc1cccc(-c2ccc(CN3CCN(c4ccc(C(=O)Nc5ccc(OC)cc5)cc4)CC3)c3ccccc23)c1` [B1O065-01, 4-[4-[[4-(3-Ethoxyphenyl)naphthalen-1-yl]methyl]piperazin-1-yl]-N-(4-methoxyphenyl)benzamide], the “ASMS ratio (%) n = 1” value is on record as 7.5% and the “ASMS ratio (%) n = 2” value was 0.8%.
The like results for `CCOc1cncc(-c2ccc(CN3CCN(c4ccc(C(=O)Nc5ccc(OC)cc5)cc4)CC3)c3ccccc23)c1` [B1O066-01, 4-[4-[[4-(5-Ethoxypyridin-3-yl)naphthalen-1-yl]methyl]piperazin-1-yl]-N-(4-methoxyphenyl)benzamide] were, in that order, 12.1% and 2.7%.
The like results for `CCOc1cccc(-c2csc(CN3CCN(c4ccc(C(=O)Nc5ccc(OC)cc5)cc4)CC3)c2)c1` [B1O067-01] were, in that order, 0.0% and 0.0%.
On the same counts, the results for `CCOc1cncc(-c2csc(CN3CCN(c4ccc(C(=O)Nc5ccc(OC)cc5)cc4)CC3)c2)c1` [B1O068-01, 4-[4-[[4-(5-Ethoxypyridin-3-yl)thiophen-2-yl]methyl]piperazin-1-yl]-N-(4-methoxyphenyl)benzamide] are 1.9% and −1.1%.
Consider `CCOc1cccc(C#Cc2ccccc2CN2CCN(c3ccc(C(=O)Nc4ccc(OC)cc4)cc3)CC2)c1` [B1O069-01, 4-[4-[[2-[2-(3-Ethoxyphenyl)ethynyl]phenyl]methyl]piperazin-1-yl]-N-(4-methoxyphenyl)benzamide], for which the “ASMS ratio (%) n = 1” value is 6.2% and the “ASMS ratio (%) n = 2” value is given as −2.4%.
On the same counts, the results for `CCOc1cncc(C#Cc2ccccc2CN2CCN(c3ccc(C(=O)Nc4ccc(OC)cc4)cc3)CC2)c1` [B1O070-01] are 8.8% and 2.3%.
The like results for `CCOc1cccc(-c2ccccc2CN2CCN(c3ccc(C(=O)Nc4ccc(OC)cc4)nn3)CC2)c1` [B1O071-01, 6-[4-[[2-(3-Ethoxyphenyl)phenyl]methyl]piperazin-1-yl]-N-(4-methoxyphenyl)pyridazine-3-carboxamide] were, in that order, 2.9% and −1.1%.
For the compound `CCOc1cncc(-c2ccccc2CN2CCN(c3ccc(C(=O)Nc4ccc(OC)cc4)nn3)CC2)c1` [B1O072-01, 6-[4-[[2-(5-Ethoxypyridin-3-yl)phenyl]methyl]piperazin-1-yl]-N-(4-methoxyphenyl)pyridazine-3-carboxamide], the “ASMS ratio (%) n = 1” value was determined as 4.1% and the “ASMS ratio (%) n = 2” value was 0.4%.
Consider `CCOc1cccc(-c2ccc(CN3CCN(c4ccc(C(=O)Nc5ccc(OC)cc5)nn4)CC3)cc2C)c1` [B1O073-01, 6-[4-[[4-(3-Ethoxyphenyl)-3-methylphenyl]methyl]piperazin-1-yl]-N-(4-methoxyphenyl)pyridazine-3-carboxamide], for which the “ASMS ratio (%) n = 1” value is given as 2.0% and the “ASMS ratio (%) n = 2” value amounted to 3.7%.
The like results for `CCOc1cncc(-c2ccc(CN3CCN(c4ccc(C(=O)Nc5ccc(OC)cc5)nn4)CC3)cc2C)c1` [B1O074-01, 6-[4-[[4-(5-Ethoxypyridin-3-yl)-3-methylphenyl]methyl]piperazin-1-yl]-N-(4-methoxyphenyl)pyridazine-3-carboxamide] were, in that order, 3.9% and −0.9%.
Consider `CCOc1cccc(-c2ccc(CN3CCN(c4ccc(C(=O)Nc5ccc(OC)cc5)nn4)CC3)c(CC)c2)c1` [B1O075-01, 6-[4-[[4-(3-Ethoxyphenyl)-2-ethylphenyl]methyl]piperazin-1-yl]-N-(4-methoxyphenyl)pyridazine-3-carboxamide], for which the “ASMS ratio (%) n = 1” value stood at 9.3% and the “ASMS ratio (%) n = 2” value was determined as 0.8%.
On the same counts, the results for `CCOc1cncc(-c2ccc(CN3CCN(c4ccc(C(=O)Nc5ccc(OC)cc5)nn4)CC3)c(CC)c2)c1` [B1O076-01, 6-[4-[[4-(5-Ethoxypyridin-3-yl)-2-ethylphenyl]methyl]piperazin-1-yl]-N-(4-methoxyphenyl)pyridazine-3-carboxamide] are 4.4% and 1.1%.
The like results for `CCOc1cccc(-c2ccc(CN3CCN(c4ccc(C(=O)Nc5ccc(OC)cc5)nn4)CC3)cc2F)c1` [B1O077-01, 6-[4-[[4-(3-Ethoxyphenyl)-3-fluorophenyl]methyl]piperazin-1-yl]-N-(4-methoxyphenyl)pyridazine-3-carboxamide] were, in that order, 4.1% and 0.4%.
In the case of `CCOc1cncc(-c2ccc(CN3CCN(c4ccc(C(=O)Nc5ccc(OC)cc5)nn4)CC3)cc2F)c1` [B1O078-01], the “ASMS ratio (%) n = 1” value is 4.8% and the “ASMS ratio (%) n = 2” value came to 1.8%.
On the same counts, the results for `CCOc1cccc(-c2ccc(CN3CCN(c4ccc(C(=O)Nc5ccc(OC)cc5)nn4)CC3)c(OC)c2)c1` [B1O079-01, 6-[4-[[4-(3-Ethoxyphenyl)-2-methoxyphenyl]methyl]piperazin-1-yl]-N-(4-methoxyphenyl)pyridazine-3-carboxamide] are 4.5% and 1.3%.
Consider `CCOc1cncc(-c2ccc(CN3CCN(c4ccc(C(=O)Nc5ccc(OC)cc5)nn4)CC3)c(OC)c2)c1` [B1O080-01, 6-[4-[[4-(5-Ethoxypyridin-3-yl)-2-methoxyphenyl]methyl]piperazin-1-yl]-N-(4-methoxyphenyl)pyridazine-3-carboxamide], for which the “ASMS ratio (%) n = 1” value was determined as 1.4% and the “ASMS ratio (%) n = 2” value is on record as 3.4%.
Take `CCOc1cccc(-c2cc(CN3CCN(c4ccc(C(=O)Nc5ccc(OC)cc5)nn4)CC3)cc(OCC)c2)c1` [B1O081-01, 6-[4-[[3-Ethoxy-5-(3-ethoxyphenyl)phenyl]methyl]piperazin-1-yl]-N-(4-methoxyphenyl)pyridazine-3-carboxamide]: the “ASMS ratio (%) n = 1” value turned out to be 3.2% and the “ASMS ratio (%) n = 2” value is −2.2%.
The like results for `CCOc1cncc(-c2cc(CN3CCN(c4ccc(C(=O)Nc5ccc(OC)cc5)nn4)CC3)cc(OCC)c2)c1` [B1O082-01, 6-[4-[[3-Ethoxy-5-(5-ethoxypyridin-3-yl)phenyl]methyl]piperazin-1-yl]-N-(4-methoxyphenyl)pyridazine-3-carboxamide] were, in that order, 1.5% and 2.6%.
On the same counts, the results for `CCOc1cccc(-c2cc(CN3CCN(c4ccc(C(=O)Nc5ccc(OC)cc5)nn4)CC3)cc(OC(C)C)c2)c1` [B1O083-01, 6-[4-[[3-(3-Ethoxyphenyl)-5-propan-2-yloxyphenyl]methyl]piperazin-1-yl]-N-(4-methoxyphenyl)pyridazine-3-carboxamide] are 7.2% and 1.0%.
Consider `CCOc1cncc(-c2cc(CN3CCN(c4ccc(C(=O)Nc5ccc(OC)cc5)nn4)CC3)cc(OC(C)C)c2)c1` [B1O084-01], for which the “ASMS ratio (%) n = 1” value was found to be 6.8% and the “ASMS ratio (%) n = 2” value was determined as 2.0%.
On the same counts, the results for `CCOc1cccc(-c2cc(OC)c(CN3CCN(c4ccc(C(=O)Nc5ccc(OC)cc5)nn4)CC3)c(OC)c2)c1` [B1O085-01, 6-[4-[[4-(3-Ethoxyphenyl)-2,6-dimethoxyphenyl]methyl]piperazin-1-yl]-N-(4-methoxyphenyl)pyridazine-3-carboxamide] are −1.1% and −3.1%.
As for `CCOc1cncc(-c2cc(OC)c(CN3CCN(c4ccc(C(=O)Nc5ccc(OC)cc5)nn4)CC3)c(OC)c2)c1` [B1O086-01, 6-[4-[[4-(5-Ethoxypyridin-3-yl)-2,6-dimethoxyphenyl]methyl]piperazin-1-yl]-N-(4-methoxyphenyl)pyridazine-3-carboxamide], the “ASMS ratio (%) n = 2” value is −0.4%.
`CCOc1cccc(-c2cc(CN3CCN(c4ccc(C(=O)Nc5ccc(OC)cc5)nn4)CC3)cc(C(F)(F)F)c2)c1` [B1O087-01]: the “ASMS ratio (%) n = 1” value stood at 2.2% and the “ASMS ratio (%) n = 2” value is given as −0.5%.
On the same counts, the results for `CCOc1cncc(-c2cc(CN3CCN(c4ccc(C(=O)Nc5ccc(OC)cc5)nn4)CC3)cc(C(F)(F)F)c2)c1` [B1O088-01] are 3.1% and 1.4%.
On the same counts, the results for `CCOc1cccc(-c2cc(CN3CCN(c4ccc(C(=O)Nc5ccc(OC)cc5)nn4)CC3)cc(OC(F)(F)F)c2)c1` [B1O089-01, 6-[4-[[3-(3-Ethoxyphenyl)-5-(trifluoromethoxy)phenyl]methyl]piperazin-1-yl]-N-(4-methoxyphenyl)pyridazine-3-carboxamide] are 3.8% and −5.3%.
As to `CCOc1cncc(-c2cc(CN3CCN(c4ccc(C(=O)Nc5ccc(OC)cc5)nn4)CC3)cc(OC(F)(F)F)c2)c1` [B1O090-01, 6-[4-[[3-(5-Ethoxypyridin-3-yl)-5-(trifluoromethoxy)phenyl]methyl]piperazin-1-yl]-N-(4-methoxyphenyl)pyridazine-3-carboxamide], the “ASMS ratio (%) n = 1” value is on record as 3.3% and the “ASMS ratio (%) n = 2” value is −2.0%.
The like results for `CCOc1cccc(-c2ccc(CN3CCN(c4ccc(C(=O)Nc5ccc(OC)cc5)nn4)CC3)c3ccccc23)c1` [B1O091-01] were, in that order, 4.5% and 2.2%.
As for `CCOc1cncc(-c2ccc(CN3CCN(c4ccc(C(=O)Nc5ccc(OC)cc5)nn4)CC3)c3ccccc23)c1` [B1O092-01, 6-[4-[[4-(5-Ethoxypyridin-3-yl)naphthalen-1-yl]methyl]piperazin-1-yl]-N-(4-methoxyphenyl)pyridazine-3-carboxamide], the “ASMS ratio (%) n = 1” value worked out at 6.3% and the “ASMS ratio (%) n = 2” value was −1.4%.
